Test results from patent US9744173B2, “2-amino 6-methyl-4,4a,5,6-tetrahydropyrano[3,4-d][1,3]thiazin-8a(8H)-yl-1,3-thiazol-4-yl amides” (Pfizer Inc., priority 2014, dated 2017).

What was measured:
[1] = test system: sAPPβ in H4 human neuroglioma cells over-expressing the wild-type human APP695; assay: sAPPβ Whole-Cell Assay (WCA); assay type: cell-based; details: 18 h
Description: sAPPβ Whole-Cell Assay (WCA): sAPPβ, the primary cleavage product of BACE1, was determined in H4 human neuroglioma cells over-expressing the wild-type human APP695. […] The colorimetric reaction was read by an EnVision (PerkinElmer) plate-reader.

human BACE2 = human BACE2 (Homo sapiens (Human), UniProt Q9Y5Z0); assay: BACE2 binding assay (SPA), BACE2/BACE1 Binding Ratio; details: ratio of IC50 from respective binding assays, pH 6.0
Chain of human BACE2 (Q9Y5Z0 63-518): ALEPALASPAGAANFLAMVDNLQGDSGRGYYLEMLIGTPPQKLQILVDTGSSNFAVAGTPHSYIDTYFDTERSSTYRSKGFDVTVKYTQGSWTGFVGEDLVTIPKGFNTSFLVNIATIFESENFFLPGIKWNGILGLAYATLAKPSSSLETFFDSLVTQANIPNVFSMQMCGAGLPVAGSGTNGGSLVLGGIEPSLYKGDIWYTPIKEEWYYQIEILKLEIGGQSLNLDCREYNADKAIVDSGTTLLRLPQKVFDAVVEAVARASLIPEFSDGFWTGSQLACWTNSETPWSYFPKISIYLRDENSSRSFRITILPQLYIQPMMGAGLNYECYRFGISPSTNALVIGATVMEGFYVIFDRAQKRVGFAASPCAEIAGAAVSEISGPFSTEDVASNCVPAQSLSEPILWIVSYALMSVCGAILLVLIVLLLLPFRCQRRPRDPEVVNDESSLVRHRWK
Description: BACE2/BACE1 Binding Ratio: The BACE1 and BACE2 binding assays measured beta-site amyloid precursor protein-cleaving enzyme (BACE) binding as a decrease in the counts of radioligand bound in a scintillation proximity assay (SPA). […] Full length human BACE1 or BACE2 over-expressed in HEK cells was prepared by Pfizer scientists. Frozen stock cell paste was reacted in 50 mM sodium acetate buffer (pH=6.0) containing 3H-(4aR,6R,8aS)-8a-(2,4-difluorophenyl)-6-(1-methyl-1H-pyrazol-4-yl)-4,4a,5,6,8,8a-hexahydropyrano[3,4-d][1,3]thiazin-2-amine ligand, SPA bead and 60 μM to 600 pM of test compound in an assay volume of 27 uL. The compound plate also contained positive (BACE inhibitor) and negative (DMSO) control wells. The binding was carried out at room temperature for 30 minutes and then the plates were read on a TriLux Microbeta reader to determine the number of counts bound.

GSH Incubation Assay = assay type: in vitro ADME; details: following incubations with glutathione
Description: GSH Incubation Assay: The test compound (10 μM in DMSO) was incubated with L-glutathione (50 mM, prepared in 100 mM postassium phosphate buffer) at 37° C. for 4 hours and then analyzed by HPLC-UV/MS/MS without work-up. Thermo Accela HPLC and Velos Pro Orbitrap Elite (S/N: SN05189B) operating in positive mode with a source voltage of 3.5 kV with data dependant processing. […] Product assignments were based on high resolution mass spectrometer fragmentation.

| Structure (SMILES) | IC50 [1] [nM] | BACE2/BACE1 Binding Ratio (human BACE2) | formation of GSH adducts (GSH Incubation Assay) |
| --- | --- | --- | --- |
| NC1=N[C@@]2(c3cc(NC(=O)c4ccc(OC(F)F)cn4)ccc3F)CO[C@@H](C(F)(F)F)C[C@H]2CS1 [Comparator 6] | < 1 | 1.0 | – |
| C[C@H]1C[C@H]2CSC(N)=N[C@@]2(c2cc(NC(=O)c3ccc(Cl)cn3)ccc2F)CO1 [Comparator 7] | < 1 | 1.0 | – |
| C[C@H]1C[C@H]2CSC(N)=N[C@@]2(c2nc(NC(=O)c3ccc(OC(F)F)cn3)cs2)CO1 [Example 1, N-{2-[(4aR,6S,8aR)-2-amino-6-methyl-4,4a,5,6-tetrahydropyrano[3,4-d][1,3]thiazin-8a(8H)-yl]-1,3-thiazol-4-yl}-5-(difluoromethoxy)pyridine-2-carboxamide] | – | – | not detected |
| C[C@H]1C[C@H]2CSC(N)=N[C@@]2(c2nc(NC(=O)c3cnc(OC(F)F)cn3)cs2)CO1 [Example 2, N-{2-[(4aR,6S,8aR)-2-amino-6-methyl-4,4a,5,6-tetrahydropyrano[3,4-d][1,3]thiazin-8a(8H)-yl]-1,3-thiazol-4-yl}-5-(difluoromethoxy)pyrazine-2-carboxamide] | – | – | not detected |
| C[C@H]1C[C@H]2CSC(N)=N[C@@]2(c2nc(NC(=O)c3ccc(Cl)cn3)cs2)CO1 [Example 7, N-{2-[(4aR,6S,8aR)-2-amino-6-methyl-4,4a,5,6-tetrahydropyrano[3,4-d][1,3]thiazin-8a(8H)-yl]-1,3-thiazol-4-yl}-5-chloropyridine-2-carboxamide] | – | – | not detected |
| Cc1cc(OC(F)F)cnc1C(=O)Nc1csc([C@]23CO[C@@H](C)C[C@H]2CSC(N)=N3)n1 [Example 45, N-{2-[(4aR,6S,8aR)-2-amino-6-methyl-4,4a,5,6-tetrahydropyrano[3,4-d][1,3]thiazin-8a(8H)-yl]-1,3-thiazol-4-yl}-5-(difluoromethoxy)-3-methylpyridine-2-carboxamide] | – | – | not detected |
